Legend:
[1] = target: T1, SHP-2 full-length protein (Homo sapiens, UniProt Q06124); experiment: Inhibition of SHP-2 kinase activity (Homogeneous Full Length SHP-2 Assay Kit); format: biochemical; settings: relative IC50, full-length SHP-2 with activating peptide
T1 construct: purchased BPS Bioscience 79330
T1 sequence (Q06124 1-593): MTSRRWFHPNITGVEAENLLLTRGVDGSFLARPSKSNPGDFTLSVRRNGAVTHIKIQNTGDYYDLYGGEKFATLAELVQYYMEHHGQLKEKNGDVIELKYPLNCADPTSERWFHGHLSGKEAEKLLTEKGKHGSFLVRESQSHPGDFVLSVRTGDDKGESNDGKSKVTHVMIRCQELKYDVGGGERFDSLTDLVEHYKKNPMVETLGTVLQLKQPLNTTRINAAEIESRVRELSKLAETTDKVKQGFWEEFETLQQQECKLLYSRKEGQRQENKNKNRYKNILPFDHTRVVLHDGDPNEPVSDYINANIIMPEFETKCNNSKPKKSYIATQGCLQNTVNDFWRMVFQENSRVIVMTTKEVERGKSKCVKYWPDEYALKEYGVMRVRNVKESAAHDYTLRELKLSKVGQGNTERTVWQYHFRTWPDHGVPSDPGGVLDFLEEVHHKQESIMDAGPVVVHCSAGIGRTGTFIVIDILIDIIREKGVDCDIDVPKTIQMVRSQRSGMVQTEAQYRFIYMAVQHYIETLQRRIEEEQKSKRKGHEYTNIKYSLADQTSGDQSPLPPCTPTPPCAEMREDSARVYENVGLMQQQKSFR
Experimental: The objective of this test is to determine the inhibitory effect of the compounds on SHP-2 full-length protein allosteric activity.
Experimental method: Homogeneous Full Length SHP-2 Assay Kit (BPS Bioscience, #79330) was used to determine the in vitro SHP-2 activity. First, 18 μL of Master Mix was added to a 96-well low adsorption microplate (NUNC, #267342), i.e., the reaction buffer with a final concentration of 1× comprised 0.5 μM SHP-2 activating Peptide and 5 mM DTT. After centrifugation, 5 μL of test compound/DMSO was added to each well (the final DMSO content was 1%, V/V, the test compound was dissolved in DMSO to 1 mM, a three-fold serial dilution was carried out to obtain ten concentrations, the final concentration of the reaction system ranged from 1 μM to 0.05 nM). SHP-2 was diluted in the 1× reaction buffer to a final concentration of 0.06 nM, and the resulting solution was added to the reaction microplate (2 μL per well). Full activity control (compound only with DMSO) and full inhibition control (no SHP-2) were set up on the reaction plate. After centrifugation, the reaction mixture was incubated at room temperature for 60 minutes.
After completion of the incubation, 25 μL of Substrate solution, which comprised Substrate with a final concentration of 10 μM and 5 mM DTT, was added to each well. After centrifugation, the reaction mixture was incubated at room temperature for 30 minutes. After completion of the reaction, readings were measured on the Synergy H1 full-function microplate reader (BioTek) (excitation wavelength: 340 nm, emission wavelength: […], gain value: 75).
The IC50 value of the test compounds was calculated by fitting the percentage inhibition rate and data of ten concentrations to a four-parameter nonlinear logic formula with GraphPad prism.

[2] = Pharmacokinetics assay in mice, oral administration; format: in vivo; settings: mouse; male Balb/c mice, oral 5 mg/kg, plasma
Experimental: Balb/c mice were used as test animals.
5 g of hydroxyethyl cellulose (HEC, CMC-Na, viscosity: 800-1200 Cps) was dissolved in 1000 mL of purified water, and 10 g of Tween80 was added. The solution was mixed well to form a clear solution. […] The solution was subjected to ultrasound for 10 minutes to obtain a colorless and clear solution with a concentration of 0.5 mg/mL.
After an overnight fast, male Balb/c mice were administrated orally with the test compounds at an administration dose of 5 mg/kg and an administration volume of 10 mL/kg.
Blood was taken before administration and at 0.25 hour, 0.5 hour, 1 hour, 2 hours, 4 hours, 6 hours, 8 hours and 24 hours after administration. The blood samples were stored in EDTA-2K tubes, and centrifuged for 6 minutes at 6000 rpm, at 4° C. to separate the blood plasma. The plasma samples were stored at −80° C. The mice were fed four hours after administration.

hERG potassium channel = target: T2, hERG potassium channel (Homo sapiens, UniProt Q12809); experiment: Inhibitory activity on hERG potassium channel (Qpatch, CHO-hERG cells); format: cell-based; settings: six concentrations up to 40 μM, read-out: hERG (inhibitory effect on hERG current)
T2 construct: expressed in transfected cells; host or cells: CHO-hERG cells
Experimental: 8.1.1 CHO-hERG cells were cultured in a 175 cm^2 culture flask. When the cells were grown to a density of 60 to 80%, the culture solution was removed, and the cells were washed once with 7 mL of PBS, and then 3 mL of Detachin was added for digestion of the cells.
8.1.2 After the digestion was complete, the cells were neutralized by adding 7 mL of the culture solution and then centrifuged. The supernatant was removed, and then 5 mL of the culture solution was added for resuspension to ensure a cell density of 2-5×10^6 cells/mL.
The single-cell high-impedance sealing and whole-cell pattern formation processes were both completed automatically by the Qpatch instrument. After the whole-cell recording pattern was obtained, the cells were clamped at −80 millivolts. A pre-voltage of −50 millivolts was applied for 50 milliseconds prior to the application of a depolarizing stimulus of +40 millivolts for 5 seconds, and then the cells were repolarized to −50 millivolts and maintained for 5 seconds, and then returned back to −80 millivolts. This voltage stimulation was applied every 15 seconds, and data were recorded for 2 minutes, and thereafter the extracellular fluid was administered and data were recorded for 5 minutes, and then the administration process was started. The compound was administered from the lowest test concentration, and 2.5 minutes were given for each test concentration. After all the concentrations of the compound were administered, […] Cisapride as a positive control compound was administered. At least three cells (n≥3) were tested for each concentration.
8.4.1 20 mM compound mother solution was diluted with the extracellular fluid. 5 μL of the 20 mM compound mother solution was diluted 500 times to 40 μM by adding 2495 μL of the extracellular fluid, and then 3-fold serial dilutions were performed sequentially in the extracellular fluid containing 0.2% DMSO to obtain a final concentration to be tested.
8.4.2 The highest test concentration was 40 μM, and there were six concentrations in total, i.e., 40, 13.33, 4.44, 1.48, 0.49, and […], respectively.
The experimental data were analyzed by XLFit software.

T2 sequence (Q12809 whole entry): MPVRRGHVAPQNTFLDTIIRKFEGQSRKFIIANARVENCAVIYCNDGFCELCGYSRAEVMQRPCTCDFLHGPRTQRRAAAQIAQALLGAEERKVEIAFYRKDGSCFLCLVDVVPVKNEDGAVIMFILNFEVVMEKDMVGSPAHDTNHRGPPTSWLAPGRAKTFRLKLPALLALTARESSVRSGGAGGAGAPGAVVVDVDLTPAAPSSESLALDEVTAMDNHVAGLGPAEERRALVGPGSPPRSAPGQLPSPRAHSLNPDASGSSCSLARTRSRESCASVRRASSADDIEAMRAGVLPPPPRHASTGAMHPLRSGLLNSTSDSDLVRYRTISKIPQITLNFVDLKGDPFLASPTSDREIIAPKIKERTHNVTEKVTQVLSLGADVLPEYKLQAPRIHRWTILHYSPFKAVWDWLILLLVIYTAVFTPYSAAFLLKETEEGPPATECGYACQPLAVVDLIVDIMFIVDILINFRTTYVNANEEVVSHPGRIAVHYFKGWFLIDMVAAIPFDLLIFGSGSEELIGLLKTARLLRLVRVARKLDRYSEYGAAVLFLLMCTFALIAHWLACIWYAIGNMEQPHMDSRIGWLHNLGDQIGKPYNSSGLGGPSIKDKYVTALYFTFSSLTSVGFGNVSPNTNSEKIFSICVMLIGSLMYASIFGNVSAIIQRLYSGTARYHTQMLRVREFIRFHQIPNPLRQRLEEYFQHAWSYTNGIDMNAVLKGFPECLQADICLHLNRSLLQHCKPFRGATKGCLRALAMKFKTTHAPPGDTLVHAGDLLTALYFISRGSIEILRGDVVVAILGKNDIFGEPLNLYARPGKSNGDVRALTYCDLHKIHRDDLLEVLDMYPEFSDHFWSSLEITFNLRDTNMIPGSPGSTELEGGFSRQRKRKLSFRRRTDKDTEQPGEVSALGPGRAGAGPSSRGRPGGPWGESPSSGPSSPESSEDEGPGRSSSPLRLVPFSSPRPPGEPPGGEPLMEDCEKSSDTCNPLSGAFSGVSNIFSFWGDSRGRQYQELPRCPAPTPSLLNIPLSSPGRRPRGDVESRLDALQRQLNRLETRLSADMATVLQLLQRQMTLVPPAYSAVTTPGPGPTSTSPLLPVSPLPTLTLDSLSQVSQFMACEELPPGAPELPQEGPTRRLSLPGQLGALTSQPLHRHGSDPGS

Row | IC50 [1] [µM] | AUC(0-inf) [2] [µg·h/mL] | Cmax [2] [µg/mL] | MRT [2] [h] | Tmax [2] [h] | half-life [2] [h] | SMILES | IC50 (hERG potassium channel) [µM]
1 | 0.00173 | 2.21 | 0.475 | 4.34 | 0.5 | 3.07 | Cc1nc(N2CCC3(CC2)Cc2ncsc2[C@H]3N)c(CO)nc1Sc1ccnc(N)c1Cl [Example 171, (S)-(6-((2-amino-3-chloropyridin-4-yl)thio)-3-(6-amino-4,6-dihydrospiro[cyclopenta[d]thiazole-5,4′-piperidin]-1′-yl)-5-methylpyrazin-2-yl)methanol] | 18.8
2 | 0.00175 | 2.44 | 0.179 | 7.92 | 0.5 | 5.23 | Nc1nc(N2CCC3(CC2)Cc2ccccc2[C@H]3N)c(F)nc1Sc1ccnc(N)c1Cl [Example 179, (S)-1′-(6-amino-5-((2-amino-3-chloropyridin-4-yl)thio)-3-fluoropyrazin-2-yl)-1,3-dihydrospiro[indene-2,4′-piperidin]-1-amine] | 4.51
3 | 0.00307 | 8.16 | 1.38 | 5.07 | 0.5 | 4.63 | Nc1nc(N2CCC3(CC2)Cc2ncsc2[C@H]3N)c(F)nc1Sc1ccnc(N)c1Cl [Example 181, (S)-1′-(6-amino-5-((2-amino-3-chloropyridin-4-yl)thio)-3-fluoropyrazin-2-yl)-4,6-dihydrospiro[cyclopenta[d]thiazole-5,4′-piperidin]-6-amine] | 21.9

Row | SMILES | IC50 [1] [µM] | AUC(0-inf) [2] [µg·h/mL] | Cmax [2] [µg/mL] | MRT [2] [h] | Tmax [2] [h] | half-life [2] [h] | IC50 (hERG potassium channel) [µM]
4 | Nc1nccc(Sc2cnc(N3CCC4(CC=C(C5CC5)[C@H]4N)CC3)cn2)c1Cl [Example 144, (S)-8-(5-((2-amino-3-chloropyridin-4-yl)thio)pyrazin-2-yl)-2-cyclopropyl-8-azaspiro[4.5]dec-2-en-1-amine] | 0.00148 | 5.39 | 0.436 | 9.08 | 1 |  | 2.34

Reference: US20210355105A1, “REGULATOR OF NITROGEN-CONTAINING HETEROAROMATIC DERIVATIVES, PREPARATION METHOD THEREFOR AND USE THEREOF” (Jiangsu Hansoh Pharmaceutical Group Co., Ltd., priority 2018, published 2021)
